The results in this text go back to patent publication US20230233584A1, “EXTENDED RELEASE 5-HT RECEPTOR AGONISTS FOR NEUROLOGICAL CONDITIONS” (Diamond Therapeutics Inc., priority 2020, published 2023).

Holding throughout (assay type): in vivo
The test system of series [1] is rats. The series can be described thus: Locomotor activity, distance travelled. An excerpt:
Stimulant drugs cause far larger increases in distance travelled with escalating doses, reflective of a direct motor stimulant property not seen with psilocybin.

Series [2] has as its system Long Evans rats. The series can be described thus: Progressive ratio (PR) test, Study A. The note with it: for food responding: low responder subgroup. The method, then: General: Experiments were conducted to test psilocybin doses in the range of 0.01-0.2 mg/kg psilocybin administered S.C. across progressive ratio (PR) and 5-choice serial reaction time task (5CSRTT) to examine the effect of psilocybin on endophenotypes of motivation and attention. In each study, a population of out-bred Long Evans rats was first tested as a group for response to the PR and 5CSRTT. Each group was then divided into subgroups by tertiles according to performance, and then exposed to various dose levels immediately prior to re-testing at various psilocybin dose levels.
The PR test is used to answer how willing the test subject is to work for food (i.e. test of motivation). A single 45 mg food pellet (i.e. reinforcer) is made available to the test animal based on lever press response. To obtain each successive pellet, the animal must make increasingly more lever presses. Typically, a progression of 2, 4, 6, 9, 12, 15, 20, 25, 32, 40, 50, 62, 77, 95, 118, etc. is used, derived from the equation:
ratio=[5×e^(0.2×reinforcer #)−5]
At some point, the animal gives up as the motor demands to obtain a single pellet are not deemed worthwhile (i.e. animal reaches “break point” defined as animal's failure to earn a food pellet in 20 minutes).
Study A: Psilocybin was administered to rats S.C. at doses of 0.05, 0.1 and 0.2 mg/kg.
Rats were then sub-grouped into tertiles based on the number of lever presses for food at baseline, so that within the test population of 36 animals, 12 animals were identified as low responders, characterized by low motivation and potentially corresponding to low motivation endophenotype representative of clinical depression. Twelve animals were identified as high responders. There was a statistically significant difference between the high and low responders. […] This represents a motivational enhancing effect of psilocybin at the 0.05 mg/kg dose in the cohort corresponding to a low motivation endophenotype representative of clinical depression.

Series [3] relates to Long Evans rats. Description: 5CSRTT, acute dosing, 10 s ITI, premature (PREM) and perseverant (PSV) responses. An excerpt: Using a longer duration between stimulus and reward, the 5CSRTT study measures premature (PREM) and perseverant (PSV) responses. PREM/PSV responses were increased by increasing the ITI from 5 s (baseline) to 10 s (test condition). […] Both PREM and PSV behaviors are examples of executive cognitive function, likely involving areas of the prefrontal cortex, a brain region rich in 5-HT2A receptors.

For series [4], the system named is Long Evans rats. The series can be described thus: 5-CSRTT during 12-day minipump (extended release) dosing of poor performing rats. The note with it: for increase in premature behaviors: minipump (ER dosing). The method, then:
The 5-choice serial reaction time task (5-CSRTT) was used to measure attentional performance in rodents. The test design involves training animals to respond to a brief visual stimulus presented unpredictably in one of five locations. Once trained to stable performance levels, the effects of experimental manipulations on response speed and choice accuracy were measured and each are related to attentional performance. The test was used to examine aspects of response control with responding prior to stimulus onset, i.e., a premature response, becoming a measure of motor impulsivity. The test is adaptable to task modification. Variations to stimulus duration (SD, 0.03-1 s duration) and frequency of stimulus presentation (2-10 s), amongst others have become commonly used to tax performance.
72 male Long Evans rats (source: Charles River, St. Constant, QE) were trained to asymptotic performance in the 5-CSRTT over a period of approximately 2 months. The rats were trained to final stimulus duration (SD) of 0.75 s, 5 s inter-trial interval (ITI), 5 s limited hold (LH), 100 trials per session. The rats were singly housed and food restricted to ˜20 g food/day throughout the study.
While the target performance levels under these conditions was in the range of >80% accuracy, <20% omissions, individual rats show different performance levels based on attentional accuracy or measures of impulsive action. The selection phase involves selecting the “worst” 40 rats based on both attentional performance (lowest performance based on accuracy measures of % correct/% hit) and/or impulsive action ([…] levels of premature responses noted at an extended 10 s ITI schedule and also baseline testing).
During the training period, 72 rats were trained on the 5-CSRTT, and the 40 worst performers. The 40 animals with the “worst” attentional performance (lowest performance based on accuracy measures of % correct, omissions and response speed) and impulsive action (PREM responses) were selected for the experiment. These 40 poor performing rats were allocated into one of two cohorts, with N=16 rats implanted with a vehicle (saline, Group A) minipumps and N=24 implanted with minipumps primed with psilocybin.
For 12 days following pump implantation surgery, rats were assessed for performance in the 5-CSRTT under (A) standard 5-CSRTT protocol (5 s ITI, 0.75 s SD, 100 trials) on days 1-4, 6-8, 10-11 (i.e. 9 days total run under this condition), and (B) the more difficult conditions of 10 s ITI, 0.3 s SD, 100 trials. The standard conditions were tested on days 1-4, 6-8, 10-11, and the more difficult conditions were tested on post-implant days 5, 9 and 12 (i.e. 3 days total run under this condition).
The result was significant on D2 (P<0.05). In FIG. 8A, B/L refers to ‘baseline’ conditions of 5 s ITI, 0.75 SD (calculated by taking the mean of the days immediately prior to and immediately following the test day). For example, B/L1 is the mean of performance on the days before and after D1 (since D1 is test day 5, B/L is mean of days 4 and 6).

Series [5] is described as follows: Body weight during 12-day minipump study. The note with it: rats.
Series [6] deals with 5-HT2A receptor activation. The series can be described thus: Motor activity and overt stereotypies during minipump dosing. The note with it: psilocybin minipump, 12 days, rats. The method, then:
There were no changes in motor activity (distance travelled, rearing counts), or induction of overt stereotypies, including cardinal signs of 5-HT2A receptor activation (Wet Dog Shakes and Back Muscle Contractions (WDS, BMD). At the completion of 12 days testing the rats were euthanized and cardiac and brain tissue were collected and snap frozen. Histological analysis was performed for the samples.

“Also recorded” adds a separate entry of the source.

Consider `CN(C)CCc1c[nH]c2cccc(OP(=O)(O)O)c12` [psilocybin, 4-phosphoryloxy-N,N-dimethyltryptamine], for which the “motor activity distance travelled” value is recorded as “slightly decreased distanced travelled” in series [1] (high doses) and “increase in motor activity distance travelled” in series [1] (low doses). Further, the food responding entry in series [2] (0.05 mg/kg) is on record as “increase in food responding”; in series [2] (0.1 mg/kg), “did not produce an increase in food responding”. Moreover, the “number of lever presses and break point” value in series [2] (0.05 mg/kg, low responders, P<0.05 vs. vehicle) is “significant increase”. Besides, the session duration in series [2] (0.05 mg/kg, low responders, P=0.07 vs. vehicle) worked out at 10.8 ± 1.9 min. In addition, the “number of lever presses or break points” value in series [2] (0.05, 0.1 and 0.2 mg/kg S.C., entire study population of 36 rats) is on record as “None of these doses were observed to cause obvious changes”. In addition, the “response in PR test” value in series [2] (0.05-0.2 mg/kg S.C., high responder subgroup) is given as “no effect on response”. For the same molecule, the “PREM and PSV responses” value in series [3] (0.05 mg/kg S.C., 24 rats, p=0.05) is listed as “increase”. Moreover, the “premature responses and perseverative responses” value in series [3] (0.05 and 0.1 mg/kg, low responders (N=8), p<0.01 vs vehicle) is recorded as “marked increases”. Moreover, in series [4] (10 s ITI challenge days, vs. vehicle, p=0.03), the “mean performance on Days 1-3” value is “significantly improved”. Further, in series [4] (10 s ITI, Challenge Day 2 (D2, test day 9), vs vehicle), the “% correct / performance” value is listed as “significant improvement; also recorded: significant (P=0.01) increase”. Further, the “% correct responses” value in series [4] (challenging conditions 10 s ITI, 0.3 s SD, test days 5, 9 and 12, vs vehicle) was “performed better than vehicle treated animals”. Besides, the “increase in premature behaviors” value is reported as “do not have an increase in premature behaviors” in series [4] (more taxing/challenge conditions 10 s ITI, 0.3 s SD) and “do not have an increase in premature behaviors” in series [4] (standard conditions). Besides, the correct attempts result in series [4] (minipump, standard test conditions, over a period of time) is listed as “does not increase the number of correct attempts; also recorded: did not show that psilocybin caused an increase in correct attempts”. Also, the “Body Weight, Day 1 vs. Day 12, Average” value in series [5] (Psilocybin 4 mg/mL minipump) is given as 20.6; in series [5] (Psilocybin 6 mg/mL minipump) it was 19.3; in series [5] (Psilocybin 8 mg/mL minipump) it was 24.4. In addition, in series [5] (psilocybin minipump, 12 day study course), the “body weight over the study course” value is on record as “gaining body weight”. For the same molecule, the “weight gain compared with placebo treated animals” value in series [5] (psilocybin minipump, 12 days) is recorded as “gained weight to a lesser amount”. For the same molecule, the “motor activity (distance travelled, rearing counts), overt stereotypies incl. WDS and BMC” value in series [6] is given as “no changes”.
